Laboratory results from patent US20220048878A1, “IMPROVEMENT IN OR RELATING TO ORGANIC COMPOUNDS” (GIVAUDAN SA, priority 2018, published 2022).
Where two headings read alike, the source gives them in different places.

How the values were obtained:
male rats [1] = assay: Repeated dose 28-day oral toxicity study in rats (OECD Guideline 407), reproductive organs and sperm analysis; format: in vivo; details: for Motile Sperms (%) / Sperm cells with normal morphology (count/total) / Sperm cells with normal morphology (percent) / Number of sperms per gram: male rats
Method: An isomeric mixture obtained according to Example 1 b was tested in a repeated dose 28-day oral toxicity study in rats according to OECD Guideline 407 (OECD, Paris, October 2008). Groups of animals (n=5) were fed with a diet containing the test item to obtain a daily ingested dose of 100 mg/kg body weight/day, 300 mg/kg body weight/day and 1000 mg/kg body weight/day. The animals were treated for 28 days. After this period, they were sacrificed and their organs were examined by pathological examination for gross lesions, weight changes and further investigated by histopathology. The seminal fluid from the epididymis was sampled and analyzed microscopically for number, morphology and motility of sperms.
All treated groups were compared to the control group with a Dunnett-test based on pooled variance and a Steel-test.

[2] = cited from earlier work
male rats [3] = details: cited from earlier work
[4] = rats, 100, 300 and 1000 mg/kg body weight/day, 28 days
[5] = male rats, 1000 mg/kg body weight per day
[6] = male rats, 300 or 1000 mg/kg body weight per day

CCC(C)=C[C@@H]1C[C@H](C)CCO1 (relative stereo) [rel-(2S,4R)-4-methyl-2-(2-methylbut-1-en-1-yl)tetrahydro-2H-pyran]
Suppression of sperm formation (male rats [1]; rats): does not suppress sperm formation

CC1CCOC(c2ccccc2)C1 (stereo not drawn) [Doremox®, 4-methyl-2-phenyltetrahydro-2H-pyran]
Lastingness compared to Rose Oxide ([2]; background statement): too long-lasting compared to Rose Oxide

CCC(C)=CC1CC(C)CCO1 (stereo not drawn) [Example 1b, 4-methyl-2-(2-methylbut-1-en-1-yl)tetrahydro-2H-pyran]
Effect on key parameters of male fertility (male rats [1]; 28 days, up to 1000 mg/kg bw/d): no effect
Difference in sperm parameters between control group and treated groups (male rats [1]; Dunnett-test and Steel-test, p=0.05 significance level): No significant differences
Motile Sperms (%) (male rats [1]; 100 mg/kg bw/d, 28 days): 63 ± 12%
Sperm cells with normal morphology (count/total) (male rats [1]; 100 mg/kg bw/d, 28 days): 156/246
Sperm cells with normal morphology (percent) (male rats [1]; 100 mg/kg bw/d, 28 days): (63.4%)
Motile Sperms (%) (male rats [1]; 300 mg/kg bw/d, 28 days): 47 ± 13%
Sperm cells with normal morphology (count/total) (male rats [1]; 300 mg/kg bw/d, 28 days): 170/210
Sperm cells with normal morphology (percent) (male rats [1]; 300 mg/kg bw/d, 28 days): (81.0%)
Motile Sperms (%) (male rats [1]; 1000 mg/kg bw/d, 28 days): 53 ± 23%
Sperm cells with normal morphology (count/total) (male rats [1]; 1000 mg/kg bw/d, 28 days): 158/197
Sperm cells with normal morphology (percent) (male rats [1]; 1000 mg/kg bw/d, 28 days): (80.2%)
Number of sperms per gram (male rats [1]; n = 5, 100 mg/kg bw/d in diet, 28 days): 3.9 ± 0.9 × 10^8
Number of sperms per gram (male rats [1]; n = 5, 300 mg/kg bw/d in diet, 28 days): 4.0 ± 0.9 × 10^8
Number of sperms per gram (male rats [1]; n = 5, 1000 mg/kg bw/d in diet, 28 days): 4.0 ± 1.9 × 10^8
Macroscopic changes to reproductive organs (male rats [1]; [4]): no macroscopic changes
Weight of the reproductive organs versus control group (male rats [1]; [4]): not different from the control group

CC(C)=CC1CC(C)CCO1 (racemic) [Rose Oxide, 4-methyl-2-(2-methylprop-1-en-1-yl)tetrahydro-2H-pyran]
Effects on sperm formation (male rats [3]; 28 days, OECD guideline 407, middle (300 mg/kg bw/d) and high (1000 mg/kg bw/d) dose): clear-cut effects on sperm formation
Classification (REACH/ECHA) (male rats [3]; classification provided by companies to ECHA): CMR2
Severity of immature ducts in distal corpus and/or cauda epididymis (histopathology) (male rats [3]; male rats, 300 mg/kg body weight per day): minimal to slight
Severity of immature ducts in distal corpus and/or cauda epididymis (histopathology) (male rats [3]; [5]): slight to severe
Weight increase of the epididymis, absolute (male rats [3]; [5]): 33%
Weight increase of the epididymis, relative (male rats [3]; [5]): 26%
Sperm function and morphology in the cauda epididymis (male rats [3]; [6]): adversely affected
Sperm numbers (male rats [3]; [6]): significantly reduced
Time to evaporate on a smelling strip ([2]; smelling strip): ≤ 30 min
